Measured values reported in publication PMC10914731, “Homo-BacPROTAC-induced degradation of ClpC1 as a strategy against drug-resistant mycobacteria” (Nature Communications, 2024).
In brackets after ≈: the same amount, converted by molar mass. Several values for one entry are separate records, joined by “and”; a condition that tells them apart may be missing. Equal values may be shown once. Read-outs that look alike come from different tables or passages of the source.

Columns and labels:
Mtb # 8673 = test: microbe, parasite or virus in culture; format: cell-based
[1] = system: M. tuberculosis H37Rv (ATCC 27294); test: microbe, parasite or virus in culture; format: cell-based
[2] = system: Mycobacterium intracellulare; test: microbe, parasite or virus in culture; format: cell-based; conditions: Mycobacterium intracellulare; mean ± SD; read-out: MIC Mycobacterium intracellulare
Msm 607 = test: microbe, parasite or virus in culture; format: cell-based
Mtb # 11291 = test: microbe, parasite or virus in culture; format: cell-based; conditions: for MIC: read-out: MIC Mtb # 11291
[3] = system: Mtb (katG del) ATCC 35822; test: microbe, parasite or virus in culture; format: cell-based
Mycobacterium abscessus = test: microbe, parasite or virus in culture; format: cell-based
Mtb ATCC 35825 = test: microbe, parasite or virus in culture; format: cell-based
Mtb (moxR) FNDR-M1 = test: microbe, parasite or virus in culture; format: cell-based
Mycobacterium avium = test: microbe, parasite or virus in culture; format: cell-based
[4] = system: Mtb H37Rv in THP-1 macrophages; test: Intracellular MIC assay in THP-1 macrophages; format: cell-based, Mycobacterium tuberculosis; conditions: H37RV, 19.44 µM
Mycobacterium fortuitum = test: microbe, parasite or virus in culture; format: cell-based
[5] = system: non-replicating cells of Mtb H37Rv; format: cell-based, Mycobacterium tuberculosis
[6] = Mycobacterium tuberculosis, mean, n = 2 well replicates
[7] = Mycobacterium tuberculosis, single well replicates
[8] = Mycobacterium tuberculosis, M. tuberculosis H37Rv 27294, single well replicates, read-out: MIC
[9] = Mycobacterium tuberculosis, Mtb H37Rv, mean ± SD, n = 3 well replicates, read-out: MIC
[10] = Mycobacterium tuberculosis, ATCC35822, M. tuberculosis ATCC 35822, single well replicates
[11] = Mycobacterium tuberculosis, ATCC35822, Mtb (katG del) ATCC 35822, mean ± SD, n = 3 well replicates
[12] = Experiment 2, three replicate columns
[13] = M. tuberculosis FNDR-M1, single well replicates
[14] = Mycobacterium tuberculosis, Mtb (moxR) FNDR-M1, mean ± SD, n = 3 well replicates

## CO[C@H]1/C=C/O[C@@]2(C)Oc3c(C)c(O)c4c(O)c(c(/C=N/N5CCN(C)CC5)c(O)c4c3C2=O)NC(=O)/C(C)=C\C=C\[C@H](C)[C@H](O)[C@@H](C)[C@@H](O)[C@@H](C)[C@H](OC(C)=O)[C@@H]1C [Rifampicin, reference compound]
Mtb # 8673; [6]
  MIC: 38.9 µM and 32 µg/mL
Mtb # 8673; [7]
  MIC: 38.9 µM and 32 µg/mL
Mtb # 8673; single well replicates
  MIC: 38.88 µM (≈ 32 µg/mL)
  MIC Mtb # 8673: 32 µg/mL (≈ 38.9 µM)
[1]; [8]
  MIC: 0.00949 µM (≈ 0.00781 µg/mL)
[1]; [9]
  MIC: 0.01 µM (≈ 0.00823 µg/mL)
[1]; Mycobacterium tuberculosis, Set 1, read-out: MIC (Mtb H37Rv) Set 1
  MIC: 0.00948 µM and 0.0078 µg/mL
[1]; Mycobacterium tuberculosis, Set 2, read-out: MIC (Mtb H37Rv) Set 2
  MIC: 0.00948 µM and 0.0078 µg/mL
[1]; Mycobacterium tuberculosis, Set 3, done at a different day than Set 1 and Set 2, read-out: MIC (Mtb H37Rv) Set 3
  MIC: 0.00948 µM and 0.0078 µg/mL
[1]; Mycobacterium tuberculosis, individual example (Supplementary Table 11), read-out: MIC Mtb H37Rv
  MIC: 0.01 µM and 0.01 µg/mL
[1]; Mycobacterium tuberculosis, mean of 3 experiments +/- SD, unit taken from the sets above in the same table, read-out: MIC data (Mtb H37Rv) (+/- SD)
  MIC: 0.009 µM and 0.0078 µg/mL
[2]
  MIC: 0.2 µM (≈ 0.165 µg/mL)
Msm 607; Mycolicibacterium smegmatis, 607, read-out: MIC Msm #607, individual example (Supplementary Table 11)
  MIC: 9.7 µM and 8 µg/mL
Msm 607; Mycolicibacterium smegmatis, ATCC607, Set-3, done at a different day than Set 1 and Set 2, read-out: MIC (Msm ATCC607) Set-3
  MIC: 9.72 µM and 8 µg/mL
Msm 607; Mycolicibacterium smegmatis, ATCC607, mean of 3 experiments ± SD, read-out: MIC including standard deviations (Msm ATCC607)
  MIC: 13 µM and 10.6 µg/mL
Msm 607; Mycolicibacterium smegmatis, ATCC607, read-out: MIC (Msm ATCC607) Set-1
  MIC: 9.72 µM and 8 µg/mL
Msm 607; Mycolicibacterium smegmatis, ATCC607, read-out: MIC (Msm ATCC607) Set-2
  MIC: 19.4 µM and 16 µg/mL
Mtb # 11291; [6]
  MIC: 0.005 µM and 0.004 µg/mL
Mtb # 11291; [7]
  MIC: 0.005 µM and 0.004 µg/mL
Mtb # 11291; single well replicates
  MIC Mtb # 11291: 0.004 µg/mL (≈ 0.00486 µM)
  MIC: 0.005 µM (≈ 0.00411 µg/mL)
[3]; [10]
  MIC: 0.00949 µM (≈ 0.00781 µg/mL)
[3]; [11]
  MIC: 0.01 µM (≈ 0.00823 µg/mL)
Mycobacterium abscessus; [12]
  MIC (µg/ml) Mycobacterium abscessus: 8 µg/mL (≈ 9.72 µM)
Mycobacterium abscessus; Experiment 2, three replicate columns, read-out: MIC (µM) Mycobacterium abscessus
  MIC: 9.72 µM
Mycobacterium abscessus; Mycobacteroides abscessus, Experiment 2, three replicate columns, read-out: MIC (µM) Mycobacterium abscessus
  MIC: 9.72 µM
Mycobacterium abscessus; Mycobacteroides abscessus, Experiment 2, three replicate columns, read-out: MIC (µg/ml) Mycobacterium abscessus
  MIC: 8 µg/mL
Mycobacterium abscessus; Mycobacteroides abscessus, mean ± SD, read-out: MIC Mycobacterium abscessus
  MIC: 9.7 µM
Mtb ATCC 35825; Mycobacterium tuberculosis, ATCC35825, mean, n = 2 well replicates
  MIC: 0.005 µM and 0.004 µg/mL
Mtb ATCC 35825; Mycobacterium tuberculosis, ATCC35825, single well replicates
  MIC: 0.004 µg/mL and 0.005 µM
Mtb ATCC 35825; single well replicates
  MIC: 0.005 µM (≈ 0.00411 µg/mL)
  MIC Mtb ATCC 35825: 0.004 µg/mL (≈ 0.00486 µM)
Mtb (moxR) FNDR-M1; [13]
  MIC: 0.019 µM and 0.00949 µM (2×)
Mtb (moxR) FNDR-M1; [14]
  MIC: 0.01 µM (≈ 0.00823 µg/mL)
Mycobacterium avium; [12]
  MIC (µg/ml) Mycobacterium avium: 0.25 µg/mL (≈ 0.304 µM)
Mycobacterium avium; Experiment 2, three replicate columns, read-out: MIC (µM) Mycobacterium avium
  MIC: 0.30 µM
Mycobacterium avium; Mycobacterium avium, Experiment 2, three replicate columns, read-out: MIC (µM) Mycobacterium avium
  MIC: 0.3 µM
Mycobacterium avium; Mycobacterium avium, Experiment 2, three replicate columns, read-out: MIC (µg/ml) Mycobacterium avium
  MIC: 0.25 µg/mL
Mycobacterium avium; Mycobacterium avium, mean ± SD, read-out: MIC Mycobacterium avium
  MIC: 0.3 µM
[4]; 96 h
  intracellular viable mycobacteria: 4.26 log10 cfu/ml
[4]; 168 h
  intracellular viable mycobacteria: 3.56 log10 cfu/ml
Mycobacterium fortuitum; [12]
  MIC (µg/ml) Mycobacterium fortuitum: 1 µg/mL (≈ 1.22 µM)
Mycobacterium fortuitum; Experiment 2, three replicate columns, read-out: MIC (µM) Mycobacterium fortuitum
  MIC: 1.22 µM
Mycobacterium fortuitum; Mycolicibacterium fortuitum, Experiment 2, three replicate columns, read-out: MIC (µM) Mycobacterium fortuitum
  MIC: 1.22 µM
Mycobacterium fortuitum; Mycolicibacterium fortuitum, Experiment 2, three replicate columns, read-out: MIC (µg/ml) Mycobacterium fortuitum
  MIC: 1 µg/mL
Mycobacterium fortuitum; Mycolicibacterium fortuitum, mean ± SD, read-out: MIC Mycobacterium fortuitum
  MIC: 1.2 µM
[5]
  inhibitory activity on non-growing Mtb H37Rv: retained a partial inhibitory activity

## NNC(=O)c1ccncc1 [Isoniazid]
Mtb # 8673; [6]
  MIC: 467 µM and 64 µg/mL
Mtb # 8673; [7]
  MIC: 467 µM and 64 µg/mL
Mtb # 8673; single well replicates
  MIC: 466.68 µM (≈ 64 µg/mL)
  MIC Mtb # 8673: 64 µg/mL (≈ 467 µM)
[1]; M. tuberculosis H37Rv 27294, single well replicates, read-out: MIC
  MIC: 0.23 µM (≈ 0.0315 µg/mL)
[1]; [8]
  MIC: 0.23 µM (≈ 0.0315 µg/mL)
[1]; [9]
  MIC: 0.2 µM (≈ 0.0274 µg/mL)
Mtb # 11291; [6]
  MIC: 3.6 µM and 0.5 µg/mL
Mtb # 11291; [7]
  MIC: 3.65 µM and 0.5 µg/mL
Mtb # 11291; single well replicates
  MIC Mtb # 11291: 0.5 µg/mL (≈ 3.65 µM)
  MIC: 3.65 µM (≈ 0.501 µg/mL)
[3]; M. tuberculosis ATCC 35822, single well replicates
  MIC: >232.22 µM
[3]; [10]
  MIC: > 232 µM
[3]; [11]
  MIC: > 232 µM
Mtb (moxR) FNDR-M1; [13]
  MIC: 0.11 µM (≈ 0.0151 µg/mL)
Mtb (moxR) FNDR-M1; Mycobacterium tuberculosis, M. tuberculosis FNDR-M1, single well replicates
  MIC: 0.11 µM (≈ 0.0151 µg/mL)
Mtb (moxR) FNDR-M1; [14]
  MIC: 0.1 µM (≈ 0.0137 µg/mL)
